Data from patent US9808434B2, “Compound for treating cancer and diabetes” (CITY OF HOPE, priority 2011, dated 2017).

Tests used:
melanoma cells [1] = assay: MTT assay, melanoma cell lines of various mutational status; format: cell-based; details: 48 h, regardless of mutational status; read-out: IC50 values across melanoma cell lines
Procedure: Cell density measurements were performed using a hemocytometer to count reproductive cells resistant to staining with trypan blue. Approximately 20,000 cells were plated into each well of 96-well flat-bottomed micro-titer plates. After 12 h or 24 h incubation at 37° C., medium containing either COH-SR4 (ranging 0-200 μM) or elesclomol (ranging 0-20 μM) were added to the cells. After 24 h, 48 h or 96 h incubation, 20 μL of 5 mg/mL MTT were introduced to each well and incubated for 2 h. The plates were centrifuged and medium was decanted. Cells were subsequently dissolved in 100 μl DMSO with gentle shaking for 2 h at room temperature, followed by measurement of OD570 (91).

melanoma cells [2] = assay: Colony formation assay, melanoma cells (elesclomol); format: cell-based, human; details: 5 μM, compared to COH-SR4
Procedure: Cell survival was evaluated using a standard colony-forming assay. In total, 1×10^5 cells/mL were incubated with COH-SR4 (1.5 μM or 5 μM) or elesclomol (5 μM) for 24 h, and aliquots of 50 or 100 μL were added to 60 mm size petri dishes, containing 4 mL culture medium. After 7 or 10 days, adherent colonies were fixed, stained with 0.5% methylene blue for 30 min and colonies were counted using the Innotech Alpha Imager HP (91).

[3] = system: B16-F0 and A2058 melanoma cells; assay: TUNEL apoptosis assay, melanoma; format: cell-based; details: 5 μM, 24 h
Procedure: For TUNEL assay, 1×10^5 cells were grown on the cover slips for ˜12 h followed by treatment with COH-SR4 (5 μM or 10 μM) or elesclomol (5 μM) for 24 h. Apoptosis was determined by the labeling of DNA fragments with terminal deoxynucleotidyl-transferase dUTP nick-end labeling (TUNEL) assay using Promega fluorescence apoptosis detection system, and examined using Zeiss LSM 510 META laser scanning fluorescence microscope with filters 520 and 620 nm according to the protocol described previously (91). Photographs taken at identical exposure at ×400 magnification are presented.

[4] = system: human melanoma cells (SK-MEL28, A2058, A101D); assay: Oxygen consumption rate in melanoma cells, Seahorse; format: cell-based; details: 1-10 μM, monitored 2 h
Procedure: (§1) Oxygen consumption rate (OCR), a measure of OxPhos, and extracellular acidification rate (ECAR), a measure of lactate production by glycolysis, were measured using a Seahorse Xf^e96 Flux Analyzers (Seahorse Biosciences, North Billerica, Mass.). Cells were seeded in DMEM media in Seahorse 96-well tissue culture plates at a density of 5×10^3 cells/well and allowed to adhere for 24 h. Prior to the assay, the media was changed to unbuffered DMEM containing 25 mM glucose, 1 mM pyruvate and 1 mM glutamine, with 0.2% fatty acid/endotoxin-free BSA (w/v) (pH 7.4) and the cells were equilibrated for 30 min at 37° C. Test compounds were injected during the assay and OCR and ECAR were measured using 2-3 min measurement periods. […] OCR was measured throughout the different injections of the stressors and test compounds (indicated by arrows in the figures).
The importance of mitochondria as oxygen sensors as well as producers of ATP and ROS has recently become a focal point of cancer research. […] OCR was continuously monitored for 2 h. Mitochondria recoupler 6-KCH (200 μM) was added to the assay system prior to injection of COH-SR4 (5 μM) as shown by arrows and OCR of A101D cells were monitored (FIG. 37B). […]

[5] = system: isolated mouse liver mitochondria; assay: Oxygen consumption rate in isolated liver mitochondria; details: increasing concentrations
Procedure: Mitochondria were isolated from the livers of 10 week old male C57BL/6 mice. Mice were euthanized by CO2 inhalation followed by cervical dislocation. Livers were removed, minced with scissors, and immediately placed in ˜10 volumes of ice-cold mitochondria isolation medium (250 mM sucrose, 10 mM Tris-HCl, 1 mM EGTA, 1% fatty acid/endotoxin-free BSA, pH 7.4). The presence of BSA in the medium allowed the endogenous free fatty acids to be chelated from the homogenate suspension. The tissues were homogenized using 25-30 strokes in Potter-Elvehjem tissue grinder. Following centrifugation at 800×g for 10 min at 4° C., the fats/lipids were carefully aspirated, and the remaining supernatant was filtered through sterile 0.40 micron nylon mesh membrane and centrifuged at 8,000×g for 10 min at 4° C. […] The mitochondrial protein concentration was determined by the DC Protein Assay kit (Bio-Rad, Hercules, Calif.) with BSA as a standard. […]
Isolated mouse liver mitochondria (2 μg/well or 5 μg/well) were seeded on Seahorse 96-well plate, and respiration (OCR) was measured on mitochondria respiring either on pyruvate (10 mM) and malate (2 mM) or succinate (10 mM) and rotenone (2 μM) using a Seahorse 96 Flux Analyzers according to Rogers et al (90).

A2058 cells = assay: Mitochondrial membrane depolarization, TMRE; format: cell-based, human; details: 5 μM
Procedure: Cells (4×10^5/well in 6-well plates) cultured overnight were pre-incubated with the fluorescent indicator of MMP tetramethylrhodamine ester (TMRE, 200 nM) or DMSO control for 30 min at 37° C. in CO2 incubator. Cells were washed with pre-warmed normal DMEM media, and test compounds were added with fresh media for the indicated times. Cells were then trypsinized, collected, centrifuged for 5 min at 800×g, and washed once in pre-warmed PBS-0.2% BSA. Cells were then resuspended in the same buffer prior to flow cytometric analysis. A total of 30,000 cells were counted per sample and data was analyzed by Cyan ADP flow cytometer with excitation/emission of 488 nm/572 nm (Beckman Coulter, Inc., Brea, Calif.). For measurements of membrane potential in isolated mouse liver mitochondria, the organelles were pre-incubated with 200 nM TMRE in MASSRO buffer (MAS buffer supplemented with 10 mM succinate, 1 μM rotenone, and 1 μM oligomycin) for 20 min at 25° C. The mitochondria were centrifuged for 5 min at 3000×g and resuspended in MASSRO buffer. Mitochondria were then added to MASSRO buffer containing the indicated concentrations of COH-SR4, FCCP or DMSO vehicle control and incubated at room temperature for 15 min. […] TMRE fluorescence was measured with a microplate reader (Tecan Infinite M200 Pro, Tecan Group Ltd., Switzerland) using an excitation emission of 545ex/580em. […]

[6] = system: isolated mouse liver mitochondria; assay: Mitochondrial swelling assay; details: potassium acetate buffer with valinomycin
Procedure: Mitochondrial swelling was measured in non-respiring mouse liver mitochondria incubated in buffered isotonic potassium acetate in the presence of valinomycin (24,25). […] Absorbance of the mitochondrial suspension before and after addition test compounds was measured every 10 seconds using a Varian Cary 300 spectrophotometer (Agilent Technologies, Santa Clara, Calif.). Swelling was recorded from the decrease in absorbance at 600 nm and expressed as percentage from initial reading after addition of mitochondria.
Mitochondrial membrane swelling was detected as decrease in absorbance at 600 nm following the addition of COH-SR4 or FCCP alone or in the presence of cysclosporin A (CSA, 1 μM) on isolated mouse liver mitochondria respiring on succinate (10 mM) in the presence of rotenone (1 μM) and valinomycin (5 μM) in potassium acetate buffer. […] Arrow indicates time of addition of test compounds into the mitochondria suspension.

A2058 p^0 cells = assay: Oxygen consumption rate in mitochondrial DNA-depleted cells; format: cell-based, human; details: compared with wild-type A2058; data not shown
Procedure: as §1, with “periods. Similar sets of experiments were performed in the presence of the mitochondria recoupler agent 6-KCH or the mitochondrial permeability transition (MPT) pore blocker CSA, where each compound was injected into the assay media prior to COH-SR4 or FCCP injection.” for “periods.”
To verify that COH-SR4 acts directly on mitochondrial respiration, OCR in mitochondrial DNA-depleted (p^0) A2058 cells was measured, as well as freshly isolated mouse liver mitochondria and treated with either COH-SR4 or FCCP.

[7] = system: HepG2 liver carcinoma cells; assay: Intracellular AMP:ATP ratio in HepG2; format: cell-based, human; details: 5 μM, 1 h
Procedure: ATP production from cells treated with test compounds were measured using the Luminescent ATP Detection Assay Kit. AMP, ATP and ADP were measured by UV-HPLC.
Total intracellular ATP production in cells treated with either 5 μM COH-SR4 or 5 μM FCCP was measured by bioluminescence assay and expressed as percentage of time-matched vehicle (DMSO) control (FIG. 84A). Intracellular AMP: ATP ratios increased in HepG2 liver carcinoma cells following 1 h treatment with either 5 μM COH-SR4 or 5 μM FCCP (FIG. 84B) and in liver of db/db mice treated with COH-SR4 (5 mg/kg B.W.) for 5 weeks (FIG. 84C). All data represented are mean±SEM, *P<0.05.

| Structure (SMILES) | IC50 (melanoma cells [1]) | colony forming ability of melanoma cells (melanoma cells [2]) | apoptosis (DNA fragmentation, TUNEL) [3] | oxygen consumption rate (OCR) [4] | OCR of mitochondria respiring on pyruvate and malate or succinate-rotenone [5] | mitochondrial membrane depolarization (TMRE fluorescence) (A2058 cells) | mitochondrial swelling (absorbance at 600 nm) [6] | OCR in mitochondrial DNA-depleted cells (A2058 p^0 cells) | intracellular AMP:ATP ratios [7] |
| --- | --- | --- | --- | --- | --- | --- | --- | --- | --- |
| CN(NC(=O)CC(=O)NN(C)C(=S)c1ccccc1)C(=S)c1ccccc1 [elesclomol, reference compound] | ≥ 5.8 µM | did not significantly affect the colony forming ability | not potent |  |  |  |  |  |  |
| N#CC(C#N)=NNc1ccc(OC(F)(F)F)cc1 [FCCP, reference compound] |  |  |  | caused an abrupt increase in OCR at the lower concentration and decreases OCR at higher (>3 μM) concentrations | dose-dependently increased OCR of mitochondria | induced mitochondrial membrane depolarization in a time-dependent manner | mitochondrial swelling was observed | failed to increase OCR | increased |
